Experimental data from patent US12642771B2, “Compositions comprising PGI2-receptor agonists and processes for the preparation thereof” (Arena Pharmaceuticals, Inc., priority 2017, dated 2026).

Tests used:
[1] = Example 7B: open-label multiple-dose escalation pharmacokinetic study of modified-release tablet, fasted or fed healthy subjects; format: in vivo, human
Method: B. A second open-label, non-randomized pharmacokinetic study was conducted in healthy subjects. Fasted (cohort 1; n=19) or fed state (cohort 2, n=18) subjects received a modified-release tablet formulation of Compound 1 in a dose escalation sequence over 25 days (once daily dosing started at 0.06 mg and was slowly titrated, depending upon individual subject tolerability, by additional 0.06 mg dose increments every 5 days up to 0.3 mg once daily).
Each subject received a once daily dose of the modified-release Compound 1 for 5 days, with up to four sequential dose escalations every 5 days: • Regimen A (0.06 mg modified-release Compound 1): 1×0.06 mg Compound 1 modified-release tablet for 5 days • Regimen B (0.12 mg modified-release Compound 1): 2×0.06 mg Compound 1 modified-release tablet for 5 days • Regimen C (0.18 mg modified-release Compound 1): 3×0.06 mg Compound 1 modified-release tablet for 5 days • Regimen D (0.24 mg modified-release Compound 1): 4×0.06 mg Compound 1 modified-release tablet for 5 days • Regimen E (0.30 mg modified-release Compound 1): 5×0.06 mg Compound 1 modified-release tablet for 5 days

[2] = Release (dissolution) profile of modified-release tablets, USP Apparatus 1 (baskets) at 100 rpm, 500 mL aqueous sodium phosphate 0.05 M, pH 6.8; format: physicochemical
Text: USP Apparatus 1 (BASKETS) is described, for example, in the United States Pharmacopeial Convention, Feb. 1, 2012, Chapter <711> (“Dissolution”), incorporated by reference herein in its entirety. See http://www.usp.org/sites/default/files/usp_pdf/EN/USPNF/revisions/m99470-gc_711.pdf. The USP Apparatus 1 (baskets) assembly consists of the following: a vessel, which may be covered, made of glass or other inert, transparent material; a motor; a metallic drive shaft, and a cylindrical basket. The materials should not sorb, react, or interfere with the specimen being tested. The vessel is partially immersed in a suitable water bath of any convenient size or heated by a suitable device such as a heating jacket. The water bath or heating device permits holding the temperature inside the vessel at 37±0.5° during the test and keeping the bath fluid in constant, smooth motion. No part of the assembly, including the environment in which the assembly is placed, contributes significant motion, agitation, or vibration beyond that due to the smoothly rotating stirring element. An apparatus that permits observation of the specimen and stirring element during the test is preferable. The vessel is cylindrical, with a hemispherical bottom and with one of the following dimensions and capacities: for a nominal capacity of 1 L, the height is 160 mm to 210 mm and its inside diameter is 98 mm to 106 mm; for a nominal capacity of 2 L, the height is 280 mm to 300 mm and its inside diameter is 98 mm to 106 mm; and for a nominal capacity of 4 L, the height is 280 mm to 300 mm and its inside diameter is 145 mm to 155 mm. Its sides are flanged at the top. A fitted cover may be used to retard evaporation. If a cover is used, it provides sufficient openings to allow ready insertion of the thermometer and withdrawal of specimens. The shaft is positioned so that its axis is not more than 2 mm at any point from the vertical axis of the vessel and rotates smoothly and without significant wobble that could affect the results. The vertical center line of the blade passes through the axis of the shaft so that the bottom of the blade is flush with the bottom of the shaft. A distance of 25±2 mm between the bottom of the blade and the inside bottom of the vessel is maintained during the test. The metallic or suitably inert, rigid blade and shaft comprise a single entity. A suitable two-part detachable design may be used provided the assembly remains firmly engaged during the test. […]
The release profiles for modified-release tablets were measured using USP Apparatus 1 (baskets).
All release profiles disclosed in Tables 6a-6d were measured with USP Apparatus 1 (baskets) at 100 rpm in 500 mL of aqueous sodium phosphate at a concentration of 0.05 M (pH=6.8). […]

[3] = Plasma pharmacokinetics of Compound 1 stated in background and description (initial clinical studies); format: in vivo; details: immediate-release capsule formulation
[4] = Example 7A: open-label single-dose pharmacokinetic study, modified-release tablet vs immediate-release capsule, fasted healthy subjects; format: in vivo, human
Method: A. An open-label, fixed sequence, non-randomized study in two cohorts of healthy male and non-pregnant, non-lactating female subjects was conducted. Two cohorts with twelve subjects in each were enrolled to ensure data in ten evaluable subjects per cohort.
Each subject in Cohort 1 received each of the following regimens, in the fasted state, in a sequential manner over four treatment periods: • Regimen A (0.03 mg immediate-release Compound 1): 1×0.03 mg Compound 1 immediate-release capsule. • Regimen B (0.06 mg modified-release Compound 1): 1×0.06 mg Compound 1 modified-release tablet as disclosed herein. • Regimen C (0.12 mg modified-release Compound 1): 2×0.06 mg Compound 1 modified-release tablets as disclosed herein. • Regimen D (0.18 mg modified-release Compound 1) 3×0.06 mg Compound 1 modified-release tablets as disclosed herein.
Subjects received each regimen in the morning of Day 1, following an overnight fast of a minimum of 8 hours. PK samples were taken from subjects at 72 hours post-dose. There was a minimum washout period of 7 days between each administration of investigational medicinal product (IMP) (i.e., selexipag film-coated tablet(s), Compound 1 immediate-release capsule(s), and/or Compound 1 modified-release tablet(s)).
Venous blood samples were withdrawn at regular time intervals. Plasma concentration data for Compound 1 and the selexipag parent and active metabolite were analyzed using appropriate non-compartmental techniques to obtain estimates of one or more of the following parameters:
One or more of the above pharmacokinetic parameters were determined at one or more of the following time points: pre-dose and (referring to hours after administration): 0.5, 1, 1.5, 2, 3, 4, 5, 6, 8, 10, 12, 16, 20, 24, 36, 48, and 72 hours.

[5] = modified-release compared to immediate-release formulation
[6] = modified-release tablet (compared with immediate-release capsule)

Exposure in the fed and fasted states ([1]; after single administration and at steady state): similar
increase of Cmax at steady state, female vs male subjects ([1]; modified-release tablet): greater than 42%
mean plasma exposure measures, females compared to males ([1]; modified-release tablet once daily): Somewhat higher
peak-trough fluctuation ([1]; modified-release tablet once daily, across dose levels): low peak-trough fluctuation
Tmax, fed state ([1]; modified-release tablet, fed vs fasted): delayed in the fed state
difference of % by weight released, initial profile vs after storage ([2]; tablets 0.05 mg and 0.5 mg Compound 1 (FIGS. 12, 13), storage at 40° C. and 75% RH for six months, any time point equal to or greater than 2 hours): ≤ 10%
Cmax and peak-trough fluctuation [3]: high Cmax and peak-trough fluctuation
Relative bioavailability based on individual dose-adjusted Cmax ([4]; 0.06, 0.12 and 0.18 mg modified-release tablet vs immediate-release capsule): statistically significantly lower
Relative bioavailability based on individual dose-adjusted ratios of AUC(0-last) ([4]; 0.06 and 0.12 mg modified-release tablet vs immediate-release capsule): statistically significantly lower
Dose-adjusted peak plasma exposure (Cmax/D), geometric mean ratio [4, 5]: 28.7-41.2%
Dose-adjusted total plasma exposure (AUC/D), geometric mean ratio [4, 5]: 63.3-97.9%
Cmax [4, 6]: reduced the Cmax
Tmax [4, 6]: increased Tmax
Plasma concentrations at 24 hours post-dose ([4]; modified-release tablet compared to immediate release-formulation): higher
Compound: O=C(O)COC[C@H]1CC[C@H](COC(=O)N(c2ccccc2)c2ccc(Cl)cc2)CC1 [Compound 1, 2-(((1r,4r)-4-(((4-chlorophenyl)(phenyl)carbamoyloxy)methyl)cyclohexyl)methoxy)acetic acid]
release rate relative to modified-release capsule ([2]; tablets 0.5 mg Compound 1 with 40% HPMC K4M CR, 100 mg, 7 kP): faster than that of the modified-release capsule
release rate relative to modified-release capsule ([2]; tablets with 30% HPMC K4M and 20% HPMC K100 LVCR, wet granulation): slightly faster than that of the modified-release capsule
release rate relative to modified-release capsule ([2]; tablets with 40% HPMC K4M and 10% HPMC K100 LVCR, wet granulation): faster than that of the modified-release capsule at time points <6 hrs but slower than that of the modified-release capsule at time points 6 hrs
total plasma concentrations [4, 6]: substantially maintaining similar total plasma concentrations
Systemic exposure (Cmax and AUC), dose proportionality ([4]; oral modified-release tablet formulation): increased in a slightly higher than dose-proportional manner
